Measurements as given in US11497819B2, “PSMA ligands for imaging and endoradiotherapy” (priority 2017, dated 2022).
Several values for one entry are separate records, joined by “and”; a condition that tells them apart may be missing. Identical values can stand only once.

Key:
LNCaP cells [1] = experiment: Internalization into LNCaP cells, relative cellular uptake to ([^125I]I-BA)KuE; assay type: cell-based; details: c = 1.0 nM ^177Lu-labeled inhibitor, 37° C., 60 min, corrected for non-specific binding (10 μM 2-PMPA), mean ± SD (n = 3)
Protocol: PSMA-positive LNCAP cells (300265; Cell Lines Service GmbH) were cultivated in Dulbecco modified Eagle medium/Nutrition Mixture F-12 (1/1) (DMEM-F12, Biochrom) supplemented with fetal calf serum (FCS) (10%, Biochrom) and kept at 37° C. in a humidified CO2 atmosphere (5%). One day (24 h±2 h) prior to all experiments with LNCaP cells, the cultivated cells were harvested using a mixture of trypsin/ethylendiaminetetraacetate (0.05%/0.02%) and PBS and centrifuged. After centrifugation, the supernatant was disposed and the cell pellet resuspended in culture medium. Afterwards, cells were counted with a hemocytometer (Neubauer) and seeded in 24-well plates.
Subsequent to the removal of the culture medium, the cells were washed once with DMEM-F12-solution (500 μL, 5% BSA) and left to equilibrate for at least 15 min at 37° C. in DMEM-F12-solution (200 μL, 5% BSA). Afterwards, each well was treated with either DMEM-F12-solution (25 μL, 5% BSA) or 2-PMPA-solution (25 μL, 100 μm) for blockade. […] The experiment was terminated by placing the 24-well plate on ice for 3 min and the consecutive removal of the medium. Each well was rinsed with HBSS (250 μL) and the fractions from these first two steps combined, representing the amount of free radioligand. Removal of surface bound activity was accomplished by incubation of the cells with ice-cold 2-PMPA-solution (250 μL, 10 μm in PBS) for 5 min and subsequent rinsing with ice-cold PBS (250 μL). The internalized activity was determined through incubation of the cells in NaOH (250 μL, 1.0 m) and the combination with the fraction of the subsequent washing step with again NaOH (250 μL, 1.0 m). Each experiment (control and blockade) was performed in triplicate for each time point. Free, surface bound and internalized activity was quantified in a γ-counter.

HSA = biological target: T1, HSA (Homo sapiens, UniProt P02768); experiment: HSA binding on Chiralpak HSA column; assay type: in vitro ADME
T1 construct: purchased Daicel Chemical Industries / Chiral Technologies Europe (Illkirch, France)
T1 sequence (P02768 25-609): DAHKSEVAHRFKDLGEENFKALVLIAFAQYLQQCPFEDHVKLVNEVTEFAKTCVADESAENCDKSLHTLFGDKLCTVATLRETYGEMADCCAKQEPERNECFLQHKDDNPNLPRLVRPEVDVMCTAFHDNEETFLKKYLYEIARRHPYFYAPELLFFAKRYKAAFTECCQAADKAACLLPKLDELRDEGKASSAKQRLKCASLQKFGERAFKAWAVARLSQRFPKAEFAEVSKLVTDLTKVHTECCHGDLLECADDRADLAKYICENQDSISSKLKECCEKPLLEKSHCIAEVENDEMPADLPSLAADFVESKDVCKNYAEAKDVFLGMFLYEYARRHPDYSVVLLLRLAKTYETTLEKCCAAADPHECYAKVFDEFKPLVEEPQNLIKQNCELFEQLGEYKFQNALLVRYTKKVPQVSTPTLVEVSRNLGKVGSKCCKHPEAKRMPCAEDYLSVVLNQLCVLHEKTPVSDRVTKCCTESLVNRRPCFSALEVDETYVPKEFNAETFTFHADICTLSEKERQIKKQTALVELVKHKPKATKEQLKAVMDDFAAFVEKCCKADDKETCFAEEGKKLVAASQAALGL
Protocol: HSA binding experiments were performed as previously described. […] For each run, 10 μL of the solution containing the inhibitor was injected into the RP-HPLC system and the retention time measured. […] Non-linear regression was established with OriginPro 2016G.

LNCaP-tumor = test system: LNCaP-tumor; set-up: species or system CB-17 SCID mice; details: male, CB-17 SCID, mouse, in vivo, 85 min
Protocol: (§1) All animal experiments were carried out in accordance with the general animal welfare regulations in Germany (Deutsches Tierschutzgesetz, approval #55.2-1-54-2532-71-13). For the tumor model, LNCaP cells (approx. 10^7 cells) were suspended in serum-free DMEM-F12 medium and Matrigel (1/1; v/v) (BD Biosciences, Germany) and inoculated onto the right shoulder of male, 6 to 8 weeks old CB-17 SCID mice (Charles River Laboratories, Sulzfeld, Germany). Animals were used after the tumor size reached 4 to 8 mm in diameter for experiments.
Imaging experiments were conducted using a Siemens Inveon small animal PET and the data analyzed by the associated Inveon Research Workplace software. Mice were anaesthetized with isoflurane and approx. 4.0 to 17 MBq of the ^68Ga-labeled compounds were injected via tail vein (approx. 150 to 300 μL). Dynamic imaging was carried out after on-bed injection for 90 min. The static blockade image was obtained after 1 h p.i. with 15 min acquisition time. PSMA-blockade was achieved by coinjection of 8 mg/kg of 2-PMPA-solution (PBS). All images were reconstructed using an OSEM3D algorithm without […] and attenuation correction.

[2] = Lipophilicity, logP in n-octanol/PBS of radiolabeled PSMA inhibitors; assay type: physicochemical; details: pH 7.4
Protocol: The radiolabeled PSMA inhibitor (0.5 to 1.0 MBq) dissolved in PBS (500 μL, pH=7.4), was added to n-octanol (500 μL) in a reaction vial (1.5 mL), which was rigorously vortexed for 3 min (n=6). For quantitative phase separation, the mixture was centrifuged at 6,000 g for 5 min (Biofuge 15, Heraus Sepatech, Osterode, Germany). The activity from samples of each phase (100 μL) were measured in a γ-counter to obtain the log P(o/w) value.

LNCaP-tumor xenograft = experiment: Biodistribution in LNCaP-tumor xenograft bearing CB-17 SCID mice; assay type: in vivo; details: male, CB-17 SCID, mouse, in vivo
Protocol: as §1

LNCaP cells [3] = experiment: Externalization kinetics / cell retention in LNCaP cells; assay type: cell-based
Protocol: FIG. 2: Externalization kinetics of selected ^177Lu-labeled PSMA inhibitors from LNCaP cells. […] Then, the supernatant was removed and once washed with DMEM-solution (5% BSA, 37° C.). Afterwards, either A) only DMEM-solution (5% BSA) or B) blockade DMEM-solution (5% BSA, 10 μm 2-PMPA) were added for replacement. The total cellular internalized activity at t=0 min was corrected for non-specific binding (10 μm 2-PMPA) and normalized to 100%. All data are expressed as mean±SD (n=3).
Externalization kinetics of the radiolabeled PSMA inhibitors were determined using LNCaP cells, which were similarly prepared as described for the internalization assay. After an initial cell-washing step with DMEM-F12-solution (5% BSA), the cells were left to recondition for at least 15 min at 37° C. Subsequently, the LNCaP cells were incubated with the respective radiolabeled peptide (25 μL, 10.0 nm) at 37° C. for 60 min in a total volume of 250 μL in each well. After 60 min, the supernatant with the unbound free fraction was removed and measured in a γ-counter for the calculation of total added radioactivity. An acid wash step was avoided to warrant enzyme integrity during the following externalization and recycling study. To determine the recycling rate, fresh DMEM-F12-solution (250 μL, 5% BSA) was given to the cells to allow re-internalization. In contrast, re-internalization was inhibited by addition of DMEM-F12-solution containing 2-PMPA (225 μL DMEM-F12 (5% BSA) and 25 μL of 100 μm 2-PMPA-solution (PBS)). The cells were then incubated for 0, 20, 40 and 60 min at 37° C. Consequently, the supernatant was removed and the cells were washed with ice-cold HBSS (250 μL). The combination of the supernatant and the volume of the concomitant washing step with HBSS (200 μL) account for externalized radioligand at the investigated time point. Further, the cells were then washed with ice-cold 2-PMPA HBSS solution (250 μL, 10 μm) twice, combined and thus represented the fraction of membrane-bound radioligand. The determination of the internalized fraction was achieved by lysis as described for the internalization assay with NaOH (250 μL, 1.0 m). The activities of free, externalized, membrane-bound and internalized radioligand were quantified in a γ-counter.

PSMA = biological target: T2, PSMA (Homo sapiens, UniProt Q04609); experiment: Competitive binding assay (IC50) on LNCaP cells with ([^125I]I-BA)KuE as radioligand; details: LNCaP cells 1.5*10^5 cells/well, 1 h, 4° C., HBSS + 1% BSA, radioligand ([^125I]I-BA)KuE; mean ± SD (n = 3)
T2 construct: host or cells: LNCaP cells
T2 sequence (Q04609 whole entry): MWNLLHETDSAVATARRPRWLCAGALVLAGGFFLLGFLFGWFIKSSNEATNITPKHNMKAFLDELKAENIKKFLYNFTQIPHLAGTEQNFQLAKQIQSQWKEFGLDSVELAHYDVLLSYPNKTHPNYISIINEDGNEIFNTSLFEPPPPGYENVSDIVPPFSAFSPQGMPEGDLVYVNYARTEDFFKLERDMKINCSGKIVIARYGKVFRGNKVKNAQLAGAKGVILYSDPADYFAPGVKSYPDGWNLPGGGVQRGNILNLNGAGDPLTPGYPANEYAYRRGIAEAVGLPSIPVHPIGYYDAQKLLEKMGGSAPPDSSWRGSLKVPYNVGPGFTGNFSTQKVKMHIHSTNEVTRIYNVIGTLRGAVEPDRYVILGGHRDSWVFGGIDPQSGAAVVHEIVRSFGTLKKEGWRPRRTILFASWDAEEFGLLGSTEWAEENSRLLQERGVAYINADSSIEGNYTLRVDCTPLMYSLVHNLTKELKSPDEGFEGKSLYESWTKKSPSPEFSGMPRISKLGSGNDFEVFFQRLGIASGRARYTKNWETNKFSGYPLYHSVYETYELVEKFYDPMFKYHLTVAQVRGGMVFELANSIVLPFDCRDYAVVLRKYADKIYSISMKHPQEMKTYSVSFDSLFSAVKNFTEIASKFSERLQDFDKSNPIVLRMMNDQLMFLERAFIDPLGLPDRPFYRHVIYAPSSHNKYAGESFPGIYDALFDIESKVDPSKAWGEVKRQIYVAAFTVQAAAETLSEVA
Protocol: One day (24 h±2 h) prior to all experiments with LNCaP cells, the cultivated cells were harvested using a mixture of trypsin/ethylendiaminetetraacetate (0.05%/0.02%) and PBS and centrifuged. After centrifugation, the supernatant was disposed and the cell pellet resuspended in culture medium. Afterwards, cells were counted with a hemocytometer (Neubauer) and seeded in 24-well plates.
After removal of the culture medium, the cells were treated once with HBSS (500 μL, Hank's balanced salt solution, Biochrom, Berlin, Germany, with addition of 1% BSA) and left 15 min on ice for equilibration in HBSS (200 μL, 1% BSA). […] All experiments were performed at least three times for each concentration. After 60 min incubation on ice, the experiment was terminated by removal of the medium and consecutive rinsing with HBSS (200 μL). The media of both steps were combined in one fraction and represent the amount of free radioligand. Afterwards, the cells were lysed with NaOH (250 μL, 1.0 m) and united with the HBSS (200 μL) of the following washing step. Quantification of bound and free radioligand was accomplished in a γ-counter.

[4] = after logarithmic plotting and calibration (n = 1)

For `O=C(O)CC[C@H](NC(=O)N[C@@H](CCCCNC(=O)CCCCC[C@H](NC(=O)c1ccc([N+](=O)[O-])cc1[N+](=O)[O-])C(=O)NCCCC[C@@H](NC(=O)[C@@H](Cc1ccccc1)NC(=O)[C@@H](Cc1ccc(O)c(I)c1)NC(=O)CCC(C(=O)O)N1CCN(CC(=O)O)CCN(CC(=O)O)CCN(CC(=O)O)CC1)C(=O)O)C(=O)O)C(=O)O` (stereo partly drawn) [PSMA-36, DOTAGA-y(3-I)fk(L-Asu[KuE]-2,4-DNBA)], the Internalization (LNCaP cells [1]) was 189.8 ± 37.5%, the “HSA (albumin binding)” value (HSA; [4]) was 82.5% and the “tumor uptake (PET)” value (LNCaP-tumor) was 3.5 % ID/mL.
For `O=C(O)CC[C@H](NC(=O)N[C@@H](CCC(=O)N[C@H](CCCNC(=O)C[C@@H](NC(=O)c1cc(C(=O)O)cc(C(=O)O)c1)C(=O)NCCCC[C@@H](NC(=O)[C@@H](Cc1ccc2ccccc2c1)NC(=O)[C@@H](Cc1ccc(O)cc1)NC(=O)[C@H](CNC(=O)c1cc(C(=O)O)cc(C(=O)O)c1)NC(=O)CCC(C(=O)O)N1CCN(CC(=O)O)CCN(CC(=O)O)CCN(CC(=O)O)CC1)C(=O)O)C(=O)O)C(=O)O)C(=O)O` (stereo partly drawn) [PSMA-66, DOTAGA-Dap(TMA)y-2-nal-k(d[N^5-orn-C^4-EuE]-TMA)], the Internalization (LNCaP cells [1]; listed as [^177Lu]PSMA-66) was 297.8±2.0% and 297.8%, the Internalization (LNCaP cells [1]; listed as [^nat/177Lu]PSMA-66) was 297.8 ± 2.0% and the logP [2] was -4.25 ± 0.14. The “HSA (albumin binding)” value (HSA; human, 0.5 mg/mL) was 64.4%, the adrenal gland (LNCaP-tumor xenograft; 1 h) was 0.78 ± 0.07 % ID/g and the blood (LNCaP-tumor xenograft; 1 h) was 0.50 ± 0.03 % ID/g. It also gave a bone (LNCaP-tumor xenograft; 1 h) of 0.37 ± 0.13 % ID/g, a brain (LNCaP-tumor xenograft; 1 h) of 0.02 ± 0.01 % ID/g and a heart (LNCaP-tumor xenograft; 1 h) of 0.49 ± 0.06 % ID/g. It also gave an intestine (LNCaP-tumor xenograft; 1 h) of 0.21 ± 0.03 % ID/g, a liver (LNCaP-tumor xenograft; 1 h) of 0.32 ± 0.02 % ID/g and a lung (LNCaP-tumor xenograft; 1 h) of 0.62 ± 0.12 % ID/g. It also gave a muscle (LNCaP-tumor xenograft; 1 h) of 0.19 ± 0.07 % ID/g, a pancreas (LNCaP-tumor xenograft; 1 h) of 0.15 ± 0.04 % ID/g and a spleen (LNCaP-tumor xenograft; 1 h) of 1.93 ± 0.04 % ID/g. The stomach (LNCaP-tumor xenograft; 1 h) was 0.28 ± 0.04 % ID/g, the tumor/blood (LNCaP-tumor xenograft; 1 h) was 20.0 and the tumor/kidney (LNCaP-tumor xenograft; 1 h) was 0.09. For the same molecule, the tumor/muscle (LNCaP-tumor xenograft; 1 h) was 52.6, the adrenal g. (LNCaP-tumor xenograft; 24 h) was 0.09 ± 0.09 % ID/g and the blood (LNCaP-tumor xenograft; 24 h) was 0.003 ± 0.001 % ID/g. For the same molecule, the bone (LNCaP-tumor xenograft; 24 h) was 0.02 ± 0.01 % ID/g, the brain (LNCaP-tumor xenograft; 24 h) was 0.01 ± 0.001 % ID/g and the heart (LNCaP-tumor xenograft; 24 h) was 0.03 ± 0.007 % ID/g. It also gave an intestine (LNCaP-tumor xenograft; 24 h) of 0.11 ± 0.07 % ID/g, a kidney (LNCaP-tumor xenograft; 24 h) of 20.92 ± 2.51 % ID/g and a liver (LNCaP-tumor xenograft; 24 h) of 0.14 ± 0.02 % ID/g. The lung (LNCaP-tumor xenograft; 24 h) was 0.03 ± 0.007 % ID/g, the muscle (LNCaP-tumor xenograft; 24 h) was 0.02 ± 0.006 % ID/g and the pancreas (LNCaP-tumor xenograft; 24 h) was 0.02 ± 0.007 % ID/g. For the same molecule, the spleen (LNCaP-tumor xenograft; 24 h) was 0.09 ± 0.02 % ID/g, the stomach (LNCaP-tumor xenograft; 24 h) was 0.07 ± 0.03 % ID/g and the t/blood (LNCaP-tumor xenograft; 24 h) was 1910.0. For the same molecule, the t/kidney (LNCaP-tumor xenograft; 24 h) was 0.3, the t/liver (LNCaP-tumor xenograft; 24 h) was 40.9 and the t/muscle (LNCaP-tumor xenograft; 24 h) was 286.5. The “in vitro tumor cell retention” value (LNCaP cells [3]; 60 min incubation, ^177Lu-labeled) was 90.1±3.5%, the “intracellular activity in the tumor cells” value (LNCaP cells [3]; after 1 h, ^177Lu-labeled) was “highest intracellular activity in the tumor cells after 1 h” and the intracellular clearance (LNCaP cells [3]; re-internalization blocked with 100 μM 2-PMPA-solution) was “lower than for all other investigated compounds”.
In the case of `O=C(O)CC[C@H](NC(=O)N[C@@H](CCCCNC(=O)[C@H](Cc1ccc2ccccc2c1)NC(=O)[C@H]1CC[C@H](CNC(=O)CN2CCN(CC(=O)O)CCN(CC(=O)O)CCN(CC(=O)O)CC2)CC1)C(=O)O)C(=O)O` [PSMA-617, reference compound], the Internalization (LNCaP cells [1]) is reported as 160.1 ± 1.5%, the IC50 (PSMA) is reported as 3.8 ± 1.7 nM and the “HSA (albumin binding)” value (HSA; [4]) is reported as 74.7%.
